From ChEMBL document CHEMBL4765410, “A cell-penetrant lactam-stapled peptide for targeting eIF4E protein-protein interactions” (Eur J Med Chem, 2020) come the findings set out here.

Structures are written as SMILES. Activity calls are given as the source filed them. The rule behind the calls is not given here. Bridge positions count the residues as written; N and C are the ends. Peptide text beside a SMILES is read from it.

Data set [1] deals with T1, Eukaryotic translation initiation factor 4E (Homo sapiens, UniProt P06730). The data set is described as follows: Binding affinity to recombinant human 10His-tagged eIF4E expressed in Escherichia coli BL21 (DE3) cells assessed as association constant by surface plasmon resonance analysis.
T1 sequence (P06730 whole entry): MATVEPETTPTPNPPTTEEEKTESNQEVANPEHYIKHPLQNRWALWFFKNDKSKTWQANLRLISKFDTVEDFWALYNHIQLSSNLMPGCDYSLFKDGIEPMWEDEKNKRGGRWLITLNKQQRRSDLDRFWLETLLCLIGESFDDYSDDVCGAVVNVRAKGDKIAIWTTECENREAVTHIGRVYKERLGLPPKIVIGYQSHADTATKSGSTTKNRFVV
In data set [2] the target is T1, Eukaryotic translation initiation factor 4E. The data set is described as follows: Inhibition of recombinant human 10His-tagged eIF4E expressed in Escherichia coli BL21 (DE3) cells by catalytic enzyme-linked click chemistry assay.
Data set [3] shares this target. The data set is described as follows: Binding affinity to recombinant human 10His-tagged eIF4E expressed in Escherichia coli BL21 (DE3) cells assessed as binding constant by surface plasmon resonance analysis. For orientation: SPR reads the build-up and loss of mass on a sensor chip optically.
The target is the same in data set [4]. The data set is described as follows: Binding affinity to eIF4E in HEK293 cell lysates assessed as thermal stabilization of protein at 1 to 15 uM incubated for 1 hrs followed by heating at 49 to 52.4 degC for 3 mins by CETSA-based Western blot analysis. In kind it is subcellular. The conditions noted are these: dose 1-15 µM. A general note: Immunoblotting shows a protein as a band on a membrane.

Data set [5] is described as follows: Drug uptake in cytosol of human HeLa cells stably expressing Halo-tagged-GFP assessed as normalized fluorescence in cytosol incubated for 4 hrs by flow cytometry based CAPA. In kind it is ADME, subcellular. (In general: Flow cytometry measures light scatter and fluorescence of single cells or particles in a stream.)
Data set [6] is described as follows: Drug uptake in cytosol of human HeLa cells stably expressing Halo-tagged-GFP assessed as normalized fluorescence in cytosol at 0.74 uM incubated for 4 hrs by flow cytometry based CAPA relative to control. In kind it is ADME, subcellular.
Data set [7] concerns the target T2, EIF4E/EIF4G1 (Homo sapiens) (UniProt P06730+Q04637). The data set is described as follows: Inhibition of eIF4E/eIF4G interaction in human MDA-MB-231 cells incubated for 6 hr by m7GDP cap pull down assay. In kind it is cell-based.
The target in data set [8] is T2, EIF4E/EIF4G1 (Homo sapiens). The data set is described as follows: Inhibition of eIF4E/eIF4G interaction in human MCF7 cells incubated for 6 hr by m7GDP cap pull down assay. In kind it is cell-based.
The target is the same in data set [9]. The data set is described as follows: Inhibition of eIF4E/eIF4G interaction in human T47D cells incubated for 6 hr by m7GDP cap pull down assay. In kind it is cell-based.
In a further data set the test system is MDA-MB-231. The data set is described as follows: Anti-proliferative activity against human MDA-MB-231 cells after 6 days by CellTiter-Glo assay. In kind it is functional, cell-based. The note with it: time 6.0 day.
The test system of another data set is MCF7. The data set is described as follows: Anti-proliferative activity against human MCF7 cells after 6 days by CellTiter-Glo assay. The conditions noted are these: time 6.0 day. In kind it is functional, cell-based.
The subject of a further data set is T47D. The data set is described as follows: Anti-proliferative activity against human T47D cells after 6 days by CellTiter-Glo assay. In kind it is functional, cell-based. The conditions noted are these: time 6.0 day.
Data set [10] addresses T1, Eukaryotic translation initiation factor 4E. The data set is described as follows: Inhibition of eIF4E in human MCF7 cells measured up to 42 hrs by m7GDP cap pull down assay. The note with it: time hrs <=42. In kind it is cell-based.

In the case of `CC[C@H](C)[C@H](NC(=O)[C@H](CCCNC(=N)N)NC(=O)[C@@H](NC(=O)CNC(C)=O)[C@@H](C)O)C(=O)N[C@H](C(=O)N[C@@H](Cc1ccc(O)cc1)C(=O)N[C@@H](CC(=O)O)C(=O)N[C@@H](CCCNC(=N)N)C(=O)N[C@@H](CCCCN)C(=O)N[C@@H](Cc1ccccc1)C(=O)N[C@@H](CC(C)C)C(=O)N[C@@H](CCSC)C(=O)N[C@@H](CCC(=O)O)C(=O)N[C@@H](CS)C(=O)N[C@@H](CCCNC(=N)N)C(=O)N[C@@H](CC(N)=O)C(N)=O)[C@@H](C)CC`, the Ka in data set [1] is 630000 M⁻¹ s⁻¹.
As for `CC[C@H](C)[C@H](NC(=O)[C@H](CCCNC(=N)N)NC(C)=O)C(=O)N[C@H](C(=O)N[C@@H](Cc1ccc(O)cc1)C(=O)N[C@@H](CC(=O)O)C(=O)N[C@@H](CCCNC(=N)N)C(=O)N[C@H]1CCC(=O)NCCCC[C@@H](C(=O)N[C@@H](CS)C(=O)N[C@@H](CCCNC(=N)N)C(N)=O)NC(=O)[C@H](CCSC)NC(=O)[C@H](CC(C)C)NC(=O)[C@H](Cc2ccccc2)NC1=O)[C@@H](C)CC` (Ac-RIIYDREFLMKCR-NH2; lactam 7-11), the IC50 (as a rule, the concentration that inhibits the measured activity by half) in [2] is 6.5 nM. Besides, in data set [1], the Ka worked out at 3.1e+06 M⁻¹ s⁻¹. The dissociation constant (Kd) (as a rule, the free concentration of one partner at which half of the binding sites on the other are occupied at equilibrium, for simple one-to-one binding) in data set [3] was 2.2 nM. In addition, the outcome in data set [4] and in [10] was Active. Further, the Q50 in [5] amounted to 1.5 µM. In data set [6], the Drug uptake worked out at 20%. In addition, the inhibition entry in data set [7], in data set [8] and in data set [9] was “Dose-dependent effect” throughout. For the same compound, the result in the data set on MDA-MB-231, in the data set with MCF7 and in the data set with T47D was inactive.
`CC[C@H](C)[C@H](NC(=O)[C@H](CCCNC(=N)N)NC(C)=O)C(=O)N[C@H](C(=O)N[C@@H](Cc1ccc(O)cc1)C(=O)N[C@@H](CC(=O)O)C(=O)N[C@@H](CCCNC(=N)N)C(=O)N[C@H]1CCCCNC(=O)CC[C@@H](C(=O)N[C@@H](CS)C(=O)N[C@@H](CCCNC(=N)N)C(N)=O)NC(=O)[C@H](CCSC)NC(=O)[C@H](CC(C)C)NC(=O)[C@H](Cc2ccccc2)NC1=O)[C@@H](C)CC` (Ac-RIIYDRKFLMECR-NH2; lactam 7-11): the IC50 in [2] worked out at 22 nM. Moreover, the Ka in data set [1] stood at 580000 M⁻¹ s⁻¹. The Kd in [3] was 7.2 nM. In data set [4], the outcome was inactive. Moreover, the Q50 in data set [5] came to 0.25 µM. Also, the Drug uptake in data set [6] came to 84%.
